The values below come from ChEMBL document CHEMBL1143967, “Targeted inhibition of hedgehog signaling by cyclopamine prodrugs for advanced prostate cancer” (Bioorg Med Chem, 2008).

The source made the active and inactive calls. The rule behind the calls is not given here. *1 amine or outer side, *2 acyl side, *3 side chain or, on linkers, in order; H or OH if unused. Where a SMILES comes first, the peptide text is derived from it. The star is where a group is joined. X1 = CC1=C2C[C@H]3[C@@H](CC=C4C[C@@H](O)CC[C@@]43C)[C@@H]2CC[C@]12O[C@@H]1C[C@H](C)CN(*)[C@H]1[C@H]2C; Morpholide = C1CN(*)CCO1; CO = O=C([*:1])[*:2]

Data set [1] deals with DU-145. Nature of the data set: Growth inhibition of human DU145 cells at 10 uM after 96 hrs. It is filed as functional, cell-based.
Data set [2] deals with DU-145. Nature of the data set: Growth inhibition of human DU145 cells at 5 uM after 96 hrs. It is filed as functional, cell-based.
For data set [3], the system named is DU-145. Kind of data set: Increase in growth inhibition of human DU145 cells in presence of PSA after 96 hrs. It is filed as functional, cell-based.
A short description of data set [4]: Hydrolysis of prodrug assessed as half life in presence PSA. It is filed as ADME.

Take `CC1=C2C[C@H]3[C@@H](CC=C4C[C@@H](O)CC[C@@]43C)[C@@H]2CC[C@]12O[C@@H]1C[C@H](C)CN[C@H]1[C@H]2C`: the result in the data set on DU-145 [1] and in the data set on DU-145 [2] was Active.

Regarding `CC1=C2C[C@H]3[C@@H](CC=C4C[C@@H](O)CC[C@@]43C)[C@@H]2CC[C@]12O[C@@H]1C[C@H](C)CN(C(=O)[C@H](CCC(N)=O)NC(=O)[C@H](CC(C)C)NC(=O)[C@H](CCCCN)NC(=O)[C@H](CO)NC(=O)[C@H](CO)NC(=O)[C@H](Cc3c[nH]cn3)NC(=O)N3CCOCC3)[C@H]1[C@H]2C` ({Morpholide-CO}-HSSKLQ-X1), the outcome with DU-145 [3] was Active. Moreover, the t1/2 in data set [4] was found to be 22 h. Take `CC1=C2C[C@H]3[C@@H](CC=C4C[C@@H](O)CC[C@@]43C)[C@@H]2CC[C@]12O[C@@H]1C[C@H](C)CN(C(=O)[C@H](CCC(N)=O)NC(=O)[C@H](Cc3ccc(O)cc3)NC(=O)[C@H](CCCCN)NC(=O)[C@H](CO)NC(=O)[C@H](CO)NC(=O)N3CCOCC3)[C@H]1[C@H]2C` ({Morpholide-CO}-SSKYQ-X1): the t1/2 in data set [4] is 3.2 h.
